# Laboratory results taken from patent US20160220710A1, “COMPOSITIONS AND METHODS FOR DELIVERING PHARMACEUTICAL AGENTS” (THE REGENTS OF THE UNIVERSITY OF MICHIGAN, priority 2015, published 2016).
# “Also recorded” adds a separate entry of the source.
# Legend:
# [1] = test system: carrageenan-based footpad-edema model; experiment: Carrageenan footpad edema model, 8-week orally fed mice; assay type: in vivo; settings: 8 week oral treatment
# Protocol: Experiments using the CFZ mice model were performed as published before (Baik et al., 2013, supra; Baik et al., 2012, supra; Keswani, R. K. et al. Mol. Pharm. 12, 2528-2536 (2015)). Mice (4 week old, male C57Bl/6) were purchased from the Jackson Laboratory (Bar Harbor, Me.) and acclimatised for 2 weeks in a specific-pathogen-free animal facility. All animal care was provided by the University of Michigan's Unit for Laboratory Animal Medicine (ULAM), and the experimental protocol was approved by the Committee on Use and Care of Animals. CFZ was dissolved in sesame oil (Roland, China, or Shirakiku, Japan) to achieve a concentration of 3 mg/ml, which was mixed with Powdered Lab Diet 5001 (PMI International, Inc., St. Louis, Mo.) to produce a 0.03% drug to powdered feed mix. A corresponding amount of sesame oil was mixed with chow for vehicle treatment (control).
# Mice Carrageenan Footpad Edema Model. Carrageenan (C1867, Sigma-Aldrich®, 2% in PBS, 30 μl) was injected into the right footpad while PBS (30 μl) was injected in the left footpad as a negative control. For preliminary testing of CFZ as an anti-inflammatory agent, 8-week orally fed mice (CFZ and control) were used. For testing of CFZ in soluble and microcrystal form, naïve 4-5 week old mice were injected with carrageenan first followed by injection of CFZ-A (2 mM in DMSO, 30 μl), CLDIs (2 mM equivalent in PBS, 30 μl) or CFZ-HCl (2 mM equivalent in PBS, 30 μl) at 48 h post carrageenan injection. For control experiments, CFZ-A, CLDIs and CFZ-HCl were injected into the right footpads of naïve 4-5 week old mice. DMSO was used as a control for CFZ-A in the left footpad whereas PBS was used as a control for CLDIs and CFZ-HCl. Footpads were measured (length—l, width—w, three thicknesses—t1, t2, t3) at various time points using a digital vernier calliper and changes in the swelling based on volume of the foot was calculated as per above.
# [2] = test system: TLR2; experiment: TNFα ELISA after Pam3 stimulation; assay type: cell-based, murine; settings: Pam3, 2 and 4 μM
# Protocol: (§1) The murine macrophage cell line RAW 264.7 was purchased from ATCC (Manassas, Va.) and maintained in DMEM (Life Technologies, Carlsbad, Calif.) supplemented with 10% FBS. Soluble CFZ or isolated CLDIs were added at various concentrations in DMEM with 5% FBS to 6-well plates containing 4×10^5 cells/well and incubated (24 h at 37° C. and 5% CO2). Culture supernatants were harvested at 24 h, centrifuged (1500×g for 5 min), and stored (−20° C.) in frozen aliquots prior to analysis. For experiments involving TLR stimulation, cells were washed twice with pre-warmed DPBS to remove extracellular, non-phagocytosed CLDIs or CFZ, and then the cells were serum-starved for 18 h in DMEM. Supernatants were collected from unstimulated cells and cells stimulated with 200 ng/ml Pam3 or 1 μg/ml LPS in DMEM.
# (§2) The media of cells with or without 6 h TLR stimulation by Pam3 or LPS was harvested, and TNFα and IL-1RA levels were measured by ELISA (Duoset, R&D Systems, Minneapolis, Minn.) in duplicate wells according to the manufacturer's instructions. The cytokine concentrations were expressed as picogram per milligram of cell lysate. Experiments were repeated three times and values are expressed as the mean±SD.
# [3] = test system: TLR4; experiment: TNFα ELISA after LPS stimulation; assay type: cell-based, murine; settings: Mus musculus, read-out: inhibition of TNFα production
# Protocol: as §1, §2
# [4] = test system: carrageenan-induced footpad inflammation; experiment: Carrageenan foot edema test; assay type: in vivo, mice
# Protocol: Clofazimine (CFZ, Sigma-Aldrich, C8895) was prepared in sesame oil (Shirakiku, Japan, or Roland, China) and Powdered Lab Diet 5001 (PMI International, Inc., St. Louis, Mo.) and orally administrated to Wild-type (WT) C57BL/6 mice or IL-1RA^−/− (4-5 week old, Jackson Laboratory, Bar Harbor, Me.) for up to 8 weeks ad libitum as previously described (Baik et al., 2013, supra; Baik et al., 2011, supra). Control mice were fed with the same diet without CFZ. The animal protocol was approved by the University of Michigan's Animal Care and Use Committee in accordance with the National Institutes of Health guidelines (UCUCA #PRO0005111).
# Foot inflammation in response to carrageenan injection was conducted in CFZ and control mice as previously described (Otterness I G, et al., Moore P F (1988) Immunochemical Techniques Part L: Chemotaxis and Inflammation (Elsevier) doi:10.1016/0076-6879(88)62086-6). In brief, the volume of each hind paw was measured with a caliper before and after the intraplantar injection of 30 μl 2% carrageenan ([…]) in PBS or equal volume of PBS in the contralateral paw. Paw swelling was measured at 4 and 48 h after injection, after which the animals were euthanized by exsanguination while deeply anesthetized with an intraperitoneal injection of ketamine (100 mg/kg) and xylazine (10 mg/kg), and the skin tissues of the plantar region were harvested for cytokine assay (see below).
compound,measurement,setting,value
"CC(C)/N=c1\cc2n(-c3ccc(Cl)cc3)c3ccccc3nc-2cc1Nc1ccc(Cl)cc1 [CFZ, 3-(p-chloroanilino)-10-(p-chlorophenyl)-2, 10-dihydro-2-isopropyliminophenazine]",decrease of inflammation vs control diet,[1]; t=4 h,~3 fold
same,decrease of inflammation vs control diet,[1]; t=24 h,~14 fold
same,decrease of inflammation vs control diet,[1]; t=48 h,~2 fold
same,Pam3/TLR2-mediated TNFα production,[2],Pam3/TLR2-mediated TNFα production was not affected
same,inhibition at 2 µM,[3]; 2 μM,51.2%
same,inhibition at 4 µM,[3]; 4 μM,76.5%
same,footpad homogenate IL-1RA levels,"[4]; 2 weeks of CFZ treatment, 48 h",reduced
same,paw swelling vs untreated mice,"[4]; 2 weeks of CFZ treatment, 48 h (legend: 4 and 48 h)",only a modest reduction in paw swelling; also recorded: only a minor reduction in swelling at 4 and 48 h
same,reduction in paw swelling vs untreated mice,"[4]; 8 week CFZ-treated, 4 h post-injection",57%
same,plasma IL-1RA levels after carrageenan,"[4]; 8 week CFZ-treated, 4 h post-injury",rapidly declined at 4 h post-injury
same,footpad homogenate IL-1RA levels,"[4]; 8 week CFZ-treated, 48 h",increased
same,footpad homogenate IL-1β and TNFα levels,"[4]; 8 week CFZ-treated, 48 h",dramatically reduced
same,paw swelling vs untreated mice,"[4]; 8 week CFZ-treated, 48 h post-injection",strikingly reduced swelling
same,anti-inflammatory effect (paw swelling),"[4]; IL-1RA KO mice, 6 weeks CFZ",greatly diminished in IL-1RA KO mice
same,paw swelling,"[4]; WT mice, 6 weeks CFZ",reduced swelling compared to untreated and injured mice
same,footpad IL-1β levels,"[4]; WT mice, 6 weeks CFZ, injured",significantly reduced
same,plasma levels of TNFα and IL-1β,"[4]; all mice, ELISA detection limit",< 15 pg/mL
